The text below walks through data of US20220372491A1, “TREATMENT OF RENAL CYSTIC DISEASE” (MONASH UNIVERSITY, priority 2019, published 2022).

The test system of one assay is Inpp5e^Δ/Δ mice. The assay is described as follows: Oral MK2206 treatment of Inpp5e^Δ/Δ mice. The class given is in vivo, mouse. How it is done:
(§1) MK2206 treatment of Inpp5e^Δ/+ and Inpp5e^Δ/Δ mice commenced at P9 and were performed daily up to P14 before sacrifice at P15.MK2206 treatment of Pkd1 litters commenced at P4 and were performed daily up to P10 before sacrifice at P11. MK2206 was delivered orally by pipette in a solution of 27 mg/ml MK2206.2HCI (S1078, Selleck Chemicals) in 30% Capsitol (Cydex) and 5% glucose (49163-100ML, Sigma-Aldrich). Mice were dosed with a volume to deliver MK2206 up to 75 mg/kg as indicated. Mouse body weights were recorded daily. Solutions were stored at 4 degrees for up to 2 weeks. Mice were culled via cervical dislocation or decapitation, as most appropriate for their age following ethical guidelines. Procedures were all conducted by ethically approved and trained personnel. Mice were measured for body weight, with ear tissue, urine and kidneys collected. Ear tissue and urine was stored at -20 degrees. Newborn and P4 kidneys were fixed whole in 4% PFA for 16 hrs at 4 degrees, while the kidney capsule membrane was removed from older mouse kidneys, with the kidney cut into halves and fixed in 10% NBF for 16 hrs at room temperature. Half the kidney samples were sent for histological processing and the other half were snap frozen and stored at -80 degrees until processed for RNA, alpha analysis and/or western blotting. Kidney tissues were paraffin imbedded and sectioned at 4 μm for most analysis with the exception of being sectioned at 10 μm for cilia analysis. Antigen retrieval was performed in Citrate buffer pH6 using Tefal pressure cooker or using a DAKO […] system as indicated. Antibody staining was performed as described elsewhere (Cottle et al., (2013) Cell reports, 3: 427-441), except triton x-100 was included in blocking buffers, and cover slips mounted using Prolong Gold (Invitrogen). Antibodies and stains are listed below. Imaging was using an Aperio brightfield and fluorescent scanners (MHP), Olympus Fluoview 500 (Biochemistry Imaging Suite), Nikon C2 or Leica SP8 confocal microscope (MMI). All quantifications with the exception of Nanostring analysis and Chi squared tests for analysis of mendelian ratios, were analyzed using the unpaired Student's t-test assuming unequal variance in Microsoft Excel and P≤0.05 values were considered significant. One or two tailed tests were selected as appropriate for hypothesis. Values presented are Mean±Standard Error of the Mean (S.E.M). 2K/BW % was calculated as the combined kidney weight over total body weight percentage. Albumin Creatinine Ratios (ACR) were calculated as μg Albumin over mg of Creatinine. Cyst identity was measured as a proportion of cyst epithelial area for each marker out of total sum of cyst epithelial areas of all markers (adjusted for marker co-localisation). Cystic index % is calculated as the proportion of cystic space occupied out of total kidney area in DBA-stained kidney longitudinal cross-sections. Cyst number reflects the average number of cysts counted per DBA-stained longitudinal kidney cross section. Cyst size is the average cross-sectional cyst size (mm^2) of cysts sampled from DBA-stained kidney longitudinal cross sections. Due to escape of Cre activity at the Aurka locus in cysts, unless otherwise indicated references to Inpp5e^Δ/Δ; Aurka^Δ/Δ immunostains and their quantifications reflect non-cystic regions throughout this study.

In the next assay the test system is Pkd1^Δ/Δ mice. As to the kind of experiment: Oral MK2206 treatment of Pkd1^Δ/Δ mice (ADPKD model). The class given is in vivo, mouse. How it is done:
as §1

The next assay deals with mTOR (Mus musculus, UniProt P26883+Q9JLN9). The conditions noted are these: model not stated; cited from earlier work.
[1] abbreviates: oral, daily from P9, sacrificed at P15, vs vehicle.
Setting [2] is: daily P4 to P10, P11, dose dependent, up to 75 mg/kg.

In the case of `NC1(c2ccc(-c3nc4ccn5c(=O)[nH]nc5c4cc3-c3ccccc3)cc2)CCC1` [MK2206], the “% AKT pS473 high collecting duct cells” value in the assay on Inpp5e^Δ/Δ mice (cystic Inpp5e^Δ/Δ and control mice, Vehicle or MK2206) is “reduces AKT pS473 detection”. Also, in the assay on Inpp5e^Δ/Δ mice (setting [1]), the “acquisition of cysts (average cyst number per section)” value is given as “slowed the acquisition of cysts”, the ciliation result is recorded as “increased ciliation”, the cyst size result is reported as “reduced cyst size” and the cystic index entry is reported as “reduced the cystic index”. Also, in the assay on Inpp5e^Δ/Δ mice (setting [1]), the “kidney size (2K/BW %)” value is listed as “significantly smaller than vehicle treated controls”, the “proportion of AURKA high cells” value is given as “also reduced” and the “proportion of collecting duct cells with phosphorylated AKT (AKT pT308 high)” value was “reduction in the proportion of collecting duct cells with phosphorylated AKT”. Moreover, in the assay with Pkd1^Δ/Δ mice (setting [2]), the cyst number entry was “reducing”, the cyst size result is “reducing”, the cystic index result is recorded as “reducing” and the “kidney to body weight ratio” value is reported as “reducing”. In the assay with Pkd1^Δ/Δ mice (daily P4 to P10, sacrifice at P11, up to 75 mg/kg), the “severity of PKD” value is “reduce the severity of PKD in a dose dependent manner”.

On to `CO[C@H]1C[C@@H]2CC[C@@H](C)[C@@](O)(O2)C(=O)C(=O)N2CCCC[C@H]2C(=O)O[C@H]([C@H](C)C[C@@H]2CC[C@@H](OCCO)[C@H](OC)C2)CC(=O)[C@H](C)/C=C(\C)[C@@H](O)[C@@H](OC)C(=O)[C@H](C)C[C@H](C)/C=C/C=C/C=C/1C` [Everolimus], for which, on mTOR, the cyst number entry was “not number” and the cyst size entry is “reduction in cyst size”.
